Experimental data reported in PubChem BioAssay (NCI).
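A five-concentration, 48-hour dose response in 96-well plates underlies each endpoint, interpolated linearly between surrounding concentrations. TGI: total growth inhibition.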

How the values were obtained:
Assay in all cases: inhibition of tumour cell growth, NCI panel, 48 h
SF-295 CNS = test system: SF-295 CNS
HCT-15 colon = test system: HCT-15 colon
SK-OV-3 ovarian = test system: SK-OV-3 ovarian
CCRF-CEM leukemia = test system: CCRF-CEM leukemia
DU-145 prostate = test system: DU-145 prostate
786-0 renal = test system: 786-0 renal
U251 CNS = test system: U251 CNS
SNB-19 CNS = test system: SNB-19 CNS
HL-60(TB) leukemia = test system: HL-60(TB) leukemia
TK-10 renal = test system: TK-10 renal
RPMI-8226 leukemia = test system: RPMI-8226 leukemia
HOP-62 NSCLC = test system: HOP-62 NSCLC
PC-3 prostate = test system: PC-3 prostate
CAKI-1 renal = test system: CAKI-1 renal
EKVX NSCLC = test system: EKVX NSCLC
NCI-H460 lung = test system: NCI-H460 lung
ACHN renal = test system: ACHN renal
OVCAR-4 ovarian = test system: OVCAR-4 ovarian
HT29 colon = test system: HT29 colon
SNB-75 CNS = test system: SNB-75 CNS
SF-539 CNS = test system: SF-539 CNS
A549 NSCLC = test system: A549 NSCLC
HOP-92 NSCLC = test system: HOP-92 NSCLC
SW-620 colon = test system: SW-620 colon
MALME-3M melanoma = test system: MALME-3M melanoma
HS 578T breast = test system: HS 578T breast
M14 melanoma = test system: M14 melanoma
NCI-H226 lung = test system: NCI-H226 lung
NCI-H23 lung = test system: NCI-H23 lung
SF-268 CNS = test system: SF-268 CNS
UACC-62 melanoma = test system: UACC-62 melanoma
OVCAR-5 ovarian = test system: OVCAR-5 ovarian
SN12C renal = test system: SN12C renal
RXF 393 renal = test system: RXF 393 renal
NCI/ADR-RES ovarian = test system: NCI/ADR-RES ovarian
SK-MEL-28 melanoma = test system: SK-MEL-28 melanoma
MDA-N = test system: MDA-N
IGROV1 ovarian = test system: IGROV1 ovarian
HCT-116 colon = test system: HCT-116 colon
K-562 leukemia = test system: K-562 leukemia
T-47D breast = test system: T-47D breast
HCC-2998 colon = test system: HCC-2998 colon
COLO 205 colon = test system: COLO 205 colon
SK-MEL-5 melanoma = test system: SK-MEL-5 melanoma
UACC-257 melanoma = test system: UACC-257 melanoma
BT-549 breast = test system: BT-549 breast
KM12 colon = test system: KM12 colon
LOX IMVI melanoma = test system: LOX IMVI melanoma
MDA-MB-435 = test system: MDA-MB-435
OVCAR-8 ovarian = test system: OVCAR-8 ovarian
UO-31 renal = test system: UO-31 renal
MOLT-4 leukemia = test system: MOLT-4 leukemia
MCF7 breast = test system: MCF7 breast
SK-MEL-2 melanoma = test system: SK-MEL-2 melanoma
NCI-H522 lung = test system: NCI-H522 lung
SR leukemia = test system: SR leukemia
A498 renal = test system: A498 renal
OVCAR-3 ovarian = test system: OVCAR-3 ovarian

## CC(=O)N=C1C=C(NC(C)=O)C(=O)c2ccccc21
SF-295 CNS
  TGI: 8.88 µM
HCT-15 colon
  TGI: 9.13 µM
SK-OV-3 ovarian
  TGI: 19.9 µM
CCRF-CEM leukemia
  TGI: 7.62 µM
DU-145 prostate
  TGI: 3.18 µM
786-0 renal
  TGI: 3.37 µM
U251 CNS
  TGI: 10.7 µM
SNB-19 CNS
  TGI: 7.9 µM
HL-60(TB) leukemia
  TGI: 6.84 µM
TK-10 renal
  TGI: 12.3 µM
RPMI-8226 leukemia
  TGI: 4.13 µM
HOP-62 NSCLC
  TGI: 40.4 µM
PC-3 prostate
  TGI: 7.49 µM
CAKI-1 renal
  TGI: 3.43 µM
EKVX NSCLC
  TGI: 12.5 µM
NCI-H460 lung
  TGI: 28.1 µM
ACHN renal
  TGI: 3.12 µM
OVCAR-4 ovarian
  TGI: 3.09 µM
HT29 colon
  TGI: 6.27 µM
SNB-75 CNS
  TGI: 8.66 µM
SF-539 CNS
  TGI: 6.39 µM
A549 NSCLC
  TGI: 19.1 µM
HOP-92 NSCLC
  TGI: 3.15 µM
SW-620 colon
  TGI: 3.86 µM
MALME-3M melanoma
  TGI: 3.62 µM
HS 578T breast
  TGI: 56.5 µM
M14 melanoma
  TGI: 3.33 µM
NCI-H226 lung
  TGI: 14.9 µM
NCI-H23 lung
  TGI: 2300 nM
SF-268 CNS
  TGI: 10.2 µM
UACC-62 melanoma
  TGI: 6.18 µM
OVCAR-5 ovarian
  TGI: 4.58 µM
SN12C renal
  TGI: 3.47 µM
RXF 393 renal
  TGI: 5.46 µM
NCI/ADR-RES ovarian
  TGI: 7.59 µM
SK-MEL-28 melanoma
  TGI: 8.04 µM
MDA-N
  TGI: 3.38 µM
IGROV1 ovarian
  TGI: 3.59 µM
HCT-116 colon
  TGI: 3.62 µM
K-562 leukemia
  TGI: 7.01 µM
T-47D breast
  TGI: 4.05 µM
HCC-2998 colon
  TGI: 34.3 µM
COLO 205 colon
  TGI: 3.79 µM
SK-MEL-5 melanoma
  TGI: 3.19 µM
UACC-257 melanoma
  TGI: 3.33 µM
BT-549 breast
  TGI: 4.85 µM
KM12 colon
  TGI: 17.5 µM
LOX IMVI melanoma
  TGI: 3.19 µM
MDA-MB-435
  TGI: 3.48 µM
OVCAR-8 ovarian
  TGI: 6.04 µM
UO-31 renal
  TGI: 4.26 µM
MOLT-4 leukemia
  TGI: 5.17 µM
MCF7 breast
  TGI: 3.46 µM
SK-MEL-2 melanoma
  TGI: 10.7 µM
NCI-H522 lung
  TGI: 3.06 µM
SR leukemia
  TGI: 4.06 µM
A498 renal
  TGI: 28.6 µM

## O=C(O)C1CCCN1C(=O)c1cc(Cl)ccn1 (centres undefined)
SF-295 CNS
  TGI: > 100 µM
HCT-15 colon
  TGI: > 100 µM
CCRF-CEM leukemia
  TGI: > 100 µM
DU-145 prostate
  TGI: > 100 µM
786-0 renal
  TGI: > 100 µM
U251 CNS
  TGI: > 100 µM
OVCAR-3 ovarian
  TGI: > 100 µM
SNB-19 CNS
  TGI: > 100 µM
HL-60(TB) leukemia
  TGI: > 100 µM
TK-10 renal
  TGI: > 100 µM
RPMI-8226 leukemia
  TGI: > 100 µM
HOP-62 NSCLC
  TGI: > 100 µM
PC-3 prostate
  TGI: > 100 µM
CAKI-1 renal
  TGI: > 100 µM
EKVX NSCLC
  TGI: > 100 µM
NCI-H460 lung
  TGI: > 100 µM
ACHN renal
  TGI: > 100 µM
OVCAR-4 ovarian
  TGI: > 100 µM
HT29 colon
  TGI: > 100 µM
SNB-75 CNS
  TGI: > 100 µM
SF-539 CNS
  TGI: > 100 µM
A549 NSCLC
  TGI: > 100 µM
HOP-92 NSCLC
  TGI: > 100 µM
SW-620 colon
  TGI: > 100 µM
MALME-3M melanoma
  TGI: > 100 µM
HS 578T breast
  TGI: > 100 µM
M14 melanoma
  TGI: > 100 µM
NCI-H226 lung
  TGI: > 100 µM
NCI-H23 lung
  TGI: > 100000 nM
SF-268 CNS
  TGI: > 100 µM
UACC-62 melanoma
  TGI: > 100 µM
OVCAR-5 ovarian
  TGI: > 100 µM
SN12C renal
  TGI: > 100 µM
RXF 393 renal
  TGI: > 100 µM
NCI/ADR-RES ovarian
  TGI: > 100 µM
SK-MEL-28 melanoma
  TGI: > 100 µM
MDA-N
  TGI: > 100 µM
IGROV1 ovarian
  TGI: > 100 µM
HCT-116 colon
  TGI: > 100 µM
K-562 leukemia
  TGI: > 100 µM
T-47D breast
  TGI: > 100 µM
HCC-2998 colon
  TGI: > 100 µM
COLO 205 colon
  TGI: > 100 µM
SK-MEL-5 melanoma
  TGI: > 100 µM
UACC-257 melanoma
  TGI: > 100 µM
BT-549 breast
  TGI: > 100 µM
KM12 colon
  TGI: > 100 µM
LOX IMVI melanoma
  TGI: > 100 µM
MDA-MB-435
  TGI: > 100 µM
OVCAR-8 ovarian
  TGI: > 100 µM
UO-31 renal
  TGI: > 100 µM
MOLT-4 leukemia
  TGI: > 100 µM
MCF7 breast
  TGI: > 100 µM
SK-MEL-2 melanoma
  TGI: > 100 µM
NCI-H522 lung
  TGI: > 100 µM
SR leukemia
  TGI: > 100 µM
A498 renal
  TGI: > 100 µM
